Assay results: the supplement of paper PMC10307832

Legend:
Assay in all cases: relative viability (nuclei count vs DMSO), 5 days (fraction); higher = more cells survive
Sunitinib + Olaparib = compound: CCN(CC)CCNC(=O)c1c(C)[nH]c(/C=C2\C(=O)Nc3ccc(F)cc32)c1C [Sunitinib] + O=C(c1cc(Cc2n[nH]c(=O)c3ccccc23)ccc1F)N1CCN(C(=O)C2CC2)CC1 [Olaparib] (partner 8 µM)
Outline: (§1)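 Five library-drug doses in √10 steps were combined with a fixed anchor-drug dose, or a single drug was given alone, by pin tool to lung cancer cell lines in 1536-well plates the day after seeding. Nuclei were stained and counted after 5 days. Relative viability is the nuclei count in treated wells over that in vehicle wells, taken as the median of duplicate plates.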

Sunitinib + Decitabine = compound: CCN(CC)CCNC(=O)c1c(C)[nH]c(/C=C2\C(=O)Nc3ccc(F)cc32)c1C [Sunitinib] + Nc1ncn([C@H]2C[C@H](O)[C@@H](CO)O2)c(=O)n1 [Decitabine] (partner 2 µM)
Outline: as §1

Sunitinib + Luminespib = compound: CCN(CC)CCNC(=O)c1c(C)[nH]c(/C=C2\C(=O)Nc3ccc(F)cc32)c1C [Sunitinib] + CCNC(=O)c1noc(-c2cc(C(C)C)c(O)cc2O)c1-c1ccc(CN2CCOCC2)cc1 [Luminespib] (partner 0.01 µM)
Outline: as §1

Sunitinib + Lapatinib = compound: CCN(CC)CCNC(=O)c1c(C)[nH]c(/C=C2\C(=O)Nc3ccc(F)cc32)c1C [Sunitinib] + CS(=O)(=O)CCNCc1ccc(-c2ccc3ncnc(Nc4ccc(OCc5cccc(F)c5)c(Cl)c4)c3c2)o1 [Lapatinib] (partner 2 µM)
Outline: as §1

Row | Cell Line | relative viability (Sunitinib + Olaparib; first compound 0.02 µM) | relative viability (Sunitinib + Olaparib; first compound 0.06325 µM) | relative viability (Sunitinib + Olaparib; first compound 0.2 µM) | relative viability (Sunitinib + Olaparib; first compound 0.6325 µM) | relative viability (Sunitinib + Olaparib; first compound 2 µM) | relative viability (Sunitinib + Decitabine; first compound 0.02 µM) | relative viability (Sunitinib + Decitabine; first compound 0.06325 µM) | relative viability (Sunitinib + Decitabine; first compound 0.2 µM) | relative viability (Sunitinib + Decitabine; first compound 2 µM) | relative viability (Sunitinib + Luminespib; first compound 0.02 µM) | relative viability (Sunitinib + Luminespib; first compound 0.06325 µM) | relative viability (Sunitinib + Luminespib; first compound 0.2 µM) | relative viability (Sunitinib + Luminespib; first compound 0.6325 µM) | relative viability (Sunitinib + Luminespib; first compound 2 µM) | relative viability (Sunitinib + Lapatinib; first compound 0.02 µM) | relative viability (Sunitinib + Lapatinib; first compound 0.06325 µM) | relative viability (Sunitinib + Lapatinib; first compound 0.2 µM) | relative viability (Sunitinib + Lapatinib; first compound 2 µM) | relative viability (Sunitinib + Lapatinib; first compound 0.6325 µM) | relative viability (Sunitinib + Decitabine; first compound 0.6325 µM)
1 | EMC-BAC-2 | 0.462 | 0.52 | 0.539 | 0.529 | 0.582 | 0.94 | 1.02 | 1.14 | 1.04 | 1.11 | 1.2 | 1.11 | 1.16 | 1.14 | 0.839 | 0.959 | 1.01 | 0.891 |  | 
2 | EBC-1 | 0.758 | 0.689 | 0.727 | 0.726 | 0.739 |  |  |  |  |  |  |  |  |  | 0.227 | 0.198 | 0.224 | 0.202 | 0.215 | 
3 | NCI-H1975 | 0.742 | 0.8 | 0.946 | 0.868 | 0.714 | 0.369 | 0.408 | 0.405 | 0.391 | 0.278 | 0.185 | 0.185 | 0.173 | 0.172 | 0.815 | 1.1 | 1.14 | 0.763 | 0.981 | 0.427
4 | NCI-H2405 | 0.855 | 0.965 | 0.88 | 0.96 | 0.93 | 0.811 | 0.8 | 0.761 | 0.761 | 0.672 | 0.616 | 0.854 | 0.947 | 0.722 | 1.03 | 1.21 | 1.18 |  | 1.18 | 0.754
5 | NCI-H23 | 0.353 | 0.28 | 0.307 | 0.312 | 0.307 | 0.293 | 0.351 | 0.328 | 0.329 | 0.214 | 0.229 | 0.204 | 0.214 | 0.21 | 1.1 | 1.42 | 1.44 | 1.08 | 1.36 | 0.307
6 | LXF-289 | 1.03 | 1.06 | 1.2 | 1.11 | 1.12 | 0.379 | 0.394 | 0.436 | 0.408 | 0.635 | 0.734 | 0.89 |  | 0.651 | 0.903 |  | 0.948 |  | 0.984 | 0.382
7 | NCI-H1437 | 0.623 | 0.641 | 0.614 | 0.61 | 0.647 | 0.566 | 0.606 | 0.624 | 0.628 | 1.03 | 1.12 | 1.23 | 1.12 | 1.17 | 0.789 | 1.1 | 0.928 | 1.03 | 0.793 | 0.514
8 | NCI-H441 | 0.481 | 0.557 | 0.796 | 0.659 | 0.61 | 0.271 | 0.285 | 0.266 | 0.317 | 0.32 | 0.275 | 0.332 | 0.396 | 0.339 |  |  |  |  |  | 0.271
9 | Calu-6 | 0.575 | 0.57 | 0.598 | 0.571 | 0.614 |  |  |  |  |  |  |  |  |  | 1.02 | 1.16 | 1.28 | 1.19 | 1.18 | 
10 | NCI-H1299 | 0.935 | 0.977 | 0.998 | 1.02 | 0.991 |  |  |  |  |  |  |  |  |  | 0.956 | 0.988 | 0.992 | 0.953 | 0.932 | 
11 | LCLC-103H | 0.69 | 0.839 | 0.787 | 0.75 | 0.817 | 0.691 | 0.798 | 0.77 | 0.71 | 0.883 | 1.04 | 0.966 | 0.977 | 1.06 |  |  |  |  |  | 0.709
12 | NCI-H1703 | 0.229 | 0.267 | 0.251 | 0.154 | 0.157 |  |  |  |  |  |  |  |  |  | 0.633 | 0.264 | 0.318 | 0.284 | 0.245 | 
13 | CAL-12T | 0.718 | 0.755 | 0.791 | 0.817 | 0.772 |  |  |  |  | 0.364 | 0.41 | 0.385 | 0.369 | 0.203 | 0.687 | 0.77 | 0.67 | 0.665 | 0.807 | 
14 | HCC-366 | 0.343 | 0.355 | 0.482 | 0.449 | 0.42 | 0.314 | 0.361 | 0.365 | 0.408 |  |  |  |  |  | 1.04 | 1.17 | 1.33 | 1.07 |  | 0.313
15 | ChaGo-K-1 | 0.483 | 0.466 | 0.414 | 0.435 | 0.441 | 0.511 | 0.485 | 0.533 | 0.555 | 0.587 | 0.662 | 0.784 | 0.709 | 0.724 |  |  |  |  |  | 0.537
16 | IA-LM | 0.826 | 0.973 | 0.842 |  | 0.981 |  |  |  |  |  |  |  |  |  | 0.674 | 0.917 | 0.804 | 0.947 | 0.81 | 
17 | HCC-78 | 0.765 | 0.82 | 0.865 | 0.866 | 0.891 | 0.709 | 0.69 | 0.737 | 0.726 |  |  |  |  |  | 0.747 |  | 0.767 | 0.893 |  | 0.683
